Assay results: US20260356860A1, “2-SUBSTITUTED 3,4A,5,7,8,8A-HEXAHYDRO-4H-THIOPYRANO[4,3-DJPYRIMIDIN-4-ONES FOR WOUND TREATMENT” (priority 2022, published 2026)

Columns and labels:
[1] = system: S. aureus (MRSA) (derived from ATCC ® 33593 ™); experiment: Bacteriostasis, log reduction; assay type: cell-based; details: for Average result / Log Reduction / Log Value: S. aureus (MRSA) ATCC 33593
[2] = system: K. pneumoniae (derived from ATCC ® 10031 ™); experiment: Bacteriostasis, log reduction; assay type: cell-based; details: K. pneumoniae ATCC 10031

Structure (SMILES) | effect on MRSA growth ([1]; 72 h, test 1) | Average result ([1]; 24 h) | Log Reduction ([1]; 24 h) | Log Value ([1]; 24 h) | Average result ([1]; 72 h) | Log Reduction ([1]; 72 h) | Log Value ([1]; 72 h) | Average result ([2]; 24 h) | Log Reduction ([2]; 24 h) | Log Value ([2]; 24 h) | Average result ([2]; 72 h) | Log Reduction ([2]; 72 h) | Log Value ([2]; 72 h)
O=c1[nH]c(-c2ccc(B(O)O)cc2)nc2c1CSCC2 [Compound 1, (4-(4-oxo-3,5,7,8-tetrahydro-4H-thiopyrano[4,3-d]pyrimidin-2-yl)phenyl)boronic acid] | did not affect MRSA growth | 9.3 × 10^3 | 0.6 | 4.0 | 4.0 × 10^4 | No | 4.6 | 1.1 × 10^3 | 1.8 | 3.0 | <200 | >2.5 | <2.3
O=c1[nH]c(-c2ccc(-c3ccc(Br)nc3)cc2)nc2c1CSCC2 [Compound 7, 2-(4-(6-bromopyridin-3-yl)phenyl)-3,5,7,8-tetrahydro-4H-thiopyrano [4,3-d]pyrimidin-4-one] | – | 2.7 × 10^3 | 1.2 | 3.4 | 1.4 × 10^5 | No | 5.1 | – | – | – | – | – | –
CC(C)(OCCO)c1ccc(-c2nc3c(c(=O)[nH]2)CSCC3)cc1 [Compound 8, 2-(4-(2-(2-hydroxyethoxy)propan-2-yl)phenyl)-3,5,7,8-tetrahydro-4H-thiopyrano[4,3-d]pyrimidin-4-one] | – | 3.3 × 10^6 | No | 6.5 | 1.0 × 10^6 | No | 6.0 | – | – | – | – | – | –
O=c1[nH]c(-c2ccc(-c3ccc(B(O)O)cc3)cc2)nc2c1CSCC2 [Compound 10, (4′-(4-oxo-3,5,7,8-tetrahydro-4H-thiopyrano[4,3-d]pyrimidin-2-yl)-[1,1′-biphenyl]-4-yl)boronic acid] | – | 3.1 × 10^4 | 0.1 | 4.5 | 2.7 × 10^3 | 1.2 | 3.4 | <200 | >2.5 | <2.3 | <200 | >2.5 | <2.3
COC(=O)NCCOC(C)(C)c1ccc(-c2nc3c(c(=O)[nH]2)CSCC3)cc1 [Compound 18, methyl (2-((2-(4-(4-oxo-3,5,7,8-tetrahydro-4H-thiopyrano[4,3-d]pyrimidin-2-yl)phenyl)propan-2-yl)oxy)ethyl)carbamate] | – | 1.5 × 10^3 | 1.6 | 3.2 | <200 | >2.5 | <2.3 | <200 | >2.5 | <2.3 | <200 | >2.5 | <2.3
